US20220389019A1, “TrkB POSITIVE ALLOSTERIC MODULATORS” (Université de Strasbourg, priority 2019, published 2022)

How the values were obtained:
TrkB [1] = assay: TrkB phosphorylation assay: potentiation of BDNF-induced TrkB phosphorylation in cortical neurons; type: cell-based; details: potentation at a PAM concentration of 10 nM of 0.4 nM BDNF-induced TrkB phosphorylation in cortical neurons
Text: It is meant by “positive allosteric modulator” (PAM), also known as allosteric enhancer or potentiator, a compound that induces an amplification of the effect of receptor's response to the primary ligand without directly activating the receptor. Within this invention, PAM TrkB activity is related to the potentation of BDNF effects on the functional activity of the TrkB receptor, measured in vitro or in vivo by mean of a specific TrkB receptor phosphorylation assay.
In Vitro Activity of LIT-TB Derivatives in a TrkB Phosphorylation Assay

PC12-TrkB cells = details: BDNF, 48 hours
Method: (§1) Nnr5 PC12-TrkA and nnr5 PC12-TrkB cells are NGF-nonresponding mutant PC12 cells stably transfected with TrkA and TrkB, respectively. Activation of TrkA and TrkB was assessed in nnr5 PC12-TrkB or -TrkA cells by quantifying the level of phospho-Trk at Tyrosine 706 (Y706) after addition of BDNF (1 nM) or NGF (2 nM), respectively, for 15 min in presence or absence of TB001 at various concentrations (0.1, 10 and […]), as previously done. Activation of downstream signaling pathway was assessed by quantifying phospho-ERK in the same cells. Neurite outgrowth was determined by counting the number the number of cells bearing neurites longer than 2 cells in diameter, 48 hours after initial treatment, as described earlier.
(§2) Selectivity of LIT-TB001 toward signaling activation and biological function was tested in PC12-TrkB or PC12-TrkA cells, in presence of BDNF (TrkB) or NGF (TrkA). Key experiments were recapitulated in either TrkA or TrkB-expressing cells to test for TB selectivity: Trk phosphorylation, ERK phosphorylation and neurite outgrowth (FIG. 1).

TrkA = TrkA (Homo sapiens, UniProt P04629); details: PC12-TrkA cells, presence or absence of NGF (2 nM)
Method: as §1, §2

TrkB [2] = target: TrkB (Homo sapiens, UniProt Q16620); details: PC12-TrkB cells, BDNF 1 nM
Method: as §1, §2

45 kinases = assay: Kinome profile (ExpresS Diversity Kinase Panel, TR-FRET LANCE); type: biochemical; details: 10 μM
Method: FIG. 2 represents the […] inhibition of the catalytic activity of 45 kinases (ExpresS Diversity Kinase Panel, Eurofins Discovey, item # P10) by LIT-TB001 at a concentration of 10 μM. For each kinase, the effect of the compound on the ATP-induced kinase-mediated substrate phosphorylation is measured by the TR-FRET LANCE technology.
A kinome profile was next performed to test LIT-TB001 selectivity toward other kinases.

TrkB [3] = target: TrkB (Mus musculus, UniProt P15209); details: C57BL/6 male mice, 0.5 and 1 mg/kg i.p., 1 h, cortex and hippocampus, western blot
Chain of TrkB (Mus musculus, UniProt P15209) (P15209 32-821): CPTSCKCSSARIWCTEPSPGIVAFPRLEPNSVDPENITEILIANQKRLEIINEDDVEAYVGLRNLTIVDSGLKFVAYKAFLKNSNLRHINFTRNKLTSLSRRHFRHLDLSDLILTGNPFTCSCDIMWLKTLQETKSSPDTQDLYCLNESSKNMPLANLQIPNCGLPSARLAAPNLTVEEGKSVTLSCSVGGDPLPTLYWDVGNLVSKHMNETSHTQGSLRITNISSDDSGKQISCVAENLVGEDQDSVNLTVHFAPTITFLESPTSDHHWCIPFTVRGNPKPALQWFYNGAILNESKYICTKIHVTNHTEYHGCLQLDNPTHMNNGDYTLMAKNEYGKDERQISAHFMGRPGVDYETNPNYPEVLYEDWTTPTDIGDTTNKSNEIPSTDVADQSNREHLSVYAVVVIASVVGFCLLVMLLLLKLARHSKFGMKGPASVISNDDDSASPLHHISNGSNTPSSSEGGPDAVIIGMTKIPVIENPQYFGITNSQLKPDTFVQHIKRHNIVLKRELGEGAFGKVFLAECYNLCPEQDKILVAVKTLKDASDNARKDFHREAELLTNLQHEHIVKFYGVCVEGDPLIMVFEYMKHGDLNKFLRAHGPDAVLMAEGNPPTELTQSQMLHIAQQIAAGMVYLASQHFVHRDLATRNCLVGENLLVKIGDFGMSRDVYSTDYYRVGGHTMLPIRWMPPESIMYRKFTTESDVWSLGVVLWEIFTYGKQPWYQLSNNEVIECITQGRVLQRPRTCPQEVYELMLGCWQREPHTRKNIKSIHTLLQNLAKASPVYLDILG
Method: After 1 hour (unless indicated otherwise), mice were decapitated, blood was collected and brains were rapidly removed on ice. […] The Anti-TrkB antibody is used to quantify the total amount of TrkB. Anti-tubulin is used as a loading control. […] Phosphorylated levels of TrkB are calculated as a ratio between phospho and total TrkB bands in each region
A volume of 10 μl/g body weight was injected. After 1 hour (unless indicated otherwise), mice were decapitated, blood was collected and brains were rapidly removed on ice. Cortex and hippocampus were subsequently dissected and tissues were rapidly washed in ice-cold PBS and transferred into ice-cold solubilization buffer before homogenization at 4° C. Samples were centrifuged at 10,000×g for 10 min at 4° C. Protein concentrations were determined, equal amounts of proteins were loaded, and western blots were performed as described above.
C57Bl6 male mice received an i.p injection of 0.5 and 1 mg/kg for 1 hour before their brain was carefully removed and their cortex and hippocampus were sub-dissected. […] The level of TrkB phosphorylation at Tyrosine 816 was analyzed by western blot (FIG. 3).

Chain of TrkA (P04629 33-796, species assumed): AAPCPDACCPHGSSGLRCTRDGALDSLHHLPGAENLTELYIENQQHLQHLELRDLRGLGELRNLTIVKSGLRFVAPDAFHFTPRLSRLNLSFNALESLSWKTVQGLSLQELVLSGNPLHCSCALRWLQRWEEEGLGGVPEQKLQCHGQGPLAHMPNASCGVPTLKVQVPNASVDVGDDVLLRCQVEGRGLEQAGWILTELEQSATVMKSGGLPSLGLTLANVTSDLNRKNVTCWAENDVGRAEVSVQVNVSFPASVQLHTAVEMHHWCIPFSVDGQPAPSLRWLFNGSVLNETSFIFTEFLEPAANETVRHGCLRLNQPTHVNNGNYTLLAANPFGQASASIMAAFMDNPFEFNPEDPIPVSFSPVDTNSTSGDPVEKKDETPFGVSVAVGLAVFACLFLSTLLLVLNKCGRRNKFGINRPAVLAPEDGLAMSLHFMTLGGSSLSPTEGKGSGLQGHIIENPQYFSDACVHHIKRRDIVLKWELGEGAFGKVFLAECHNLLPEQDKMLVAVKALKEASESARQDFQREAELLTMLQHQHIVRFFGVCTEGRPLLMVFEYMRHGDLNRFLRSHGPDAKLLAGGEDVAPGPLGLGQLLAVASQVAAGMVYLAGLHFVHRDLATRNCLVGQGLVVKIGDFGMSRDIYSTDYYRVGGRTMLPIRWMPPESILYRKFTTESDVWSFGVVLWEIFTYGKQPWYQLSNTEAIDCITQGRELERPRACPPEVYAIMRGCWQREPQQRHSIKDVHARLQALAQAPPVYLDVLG
Chain of TrkB (Homo sapiens, UniProt Q16620) (Q16620 32-822, species assumed): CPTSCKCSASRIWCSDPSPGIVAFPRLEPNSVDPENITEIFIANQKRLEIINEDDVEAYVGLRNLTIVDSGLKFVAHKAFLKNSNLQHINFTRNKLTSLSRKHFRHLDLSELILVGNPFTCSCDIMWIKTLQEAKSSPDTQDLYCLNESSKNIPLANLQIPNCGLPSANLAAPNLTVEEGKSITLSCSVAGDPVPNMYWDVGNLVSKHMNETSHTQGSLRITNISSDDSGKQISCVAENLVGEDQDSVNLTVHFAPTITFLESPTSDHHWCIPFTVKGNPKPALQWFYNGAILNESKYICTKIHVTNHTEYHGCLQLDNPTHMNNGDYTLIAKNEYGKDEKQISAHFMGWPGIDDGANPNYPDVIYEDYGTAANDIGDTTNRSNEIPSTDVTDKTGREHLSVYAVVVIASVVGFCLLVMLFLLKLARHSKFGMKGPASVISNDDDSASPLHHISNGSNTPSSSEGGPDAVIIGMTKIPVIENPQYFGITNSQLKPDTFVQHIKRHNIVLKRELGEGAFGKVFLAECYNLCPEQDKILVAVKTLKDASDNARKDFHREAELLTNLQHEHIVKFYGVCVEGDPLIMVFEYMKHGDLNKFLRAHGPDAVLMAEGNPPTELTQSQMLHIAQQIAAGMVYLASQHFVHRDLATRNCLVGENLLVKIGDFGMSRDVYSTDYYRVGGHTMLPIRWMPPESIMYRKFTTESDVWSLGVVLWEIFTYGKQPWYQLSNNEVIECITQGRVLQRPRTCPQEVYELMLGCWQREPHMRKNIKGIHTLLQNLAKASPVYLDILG

CN1CCN(c2ccc3nnc(CCC(=O)NC4CCN(Cc5ccccc5)CC4)n3n2)CC1 [LIT-TB001, N-(1-benzylpiperidin-4-yl)-3-[6-(4-methylpiperazin-1-yl)-[1,2,4]triazolo[4,3-b]pyridazin-3-yl] propanamide]
PAM TrkB activity (TrkB [1]): +++ (+++: >35%)
neurite outgrowth (PC12-TrkB cells): potentiates BDNF-
phosphorylation of ERK (TrkA): did not induce phosphorylation of ERK or TrkA
phosphorylation of TrkA (TrkA): did not induce phosphorylation of ERK or TrkA
phosphorylation of ERK (TrkB [2]): induced only in the presence of BDNF
phosphorylation of TrkB (TrkB [2]; 15 min): induced only in the presence of BDNF
effect on catalytic activity of 45 kinases (among them TrkA) (45 kinases): does not activate neither block the catalytic activity of the tested kinases
TrkB activation (phospho-TrkB/total TrkB) in the brain (TrkB [3]): efficiently increases TrkB activation in the brain

O=C(CCc1nnc2ccc(N3CCCCC3)nn12)NC1CCN(Cc2ccccc2)CC1 [LIT-TB002, N-(1-benzylpiperidin-4-yl)-3-[6-(piperidin-1-yl)-[1,2,4]triazolo[4,3-b]pyridazin-3-yl]propanamide]
PAM TrkB activity (TrkB [1]): ++ (++: 20-35%)

CN1CCN(c2ccc3nnc(CCC(=O)NC4CCN(Cc5ccc(F)cc5)CC4)n3n2)CC1 [LIT-TB020, N-{1-[(4-fluorophenyl)methyl]piperidin-4-yl}-3-[6-(4-methylpiperazin-1-yl)-[1,2,4]triazolo[4,3-b]pyridazin-3-yl]propanamide]
PAM TrkB activity (TrkB [1]): +++ (+++: >35%)

COc1ccc(CN2CC[C@@H](NC(=O)CCc3nnc4ccc(N5CCN(C)CC5)nn34)[C@H](F)C2)cc1 [LIT-TB053, N-[(3R,4R)-3-fluoro-1-[(4-methoxyphenyl)methyl]piperidin-4-yl]-3-[6-(4-methylpiperazin-1-yl)-[1,2,4]triazolo[4,3-b]pyridazin-3-yl]propanamide]
PAM TrkB activity (TrkB [1]): ++ (++: 20-35%)

CN1CCN(c2ccc3nnc(CCC(=O)N[C@@H]4CCN(Cc5ccccc5)C[C@@H]4F)n3n2)CC1 [LIT-TB047, N-[(3S,4R)-1-benzyl-3-fluoropiperidin-4-yl]-3-[6-(4-methylpiperazin-1-yl)-[1,2,4]triazolo[4,3-b]pyridazin-3-yl]propanamide]
PAM TrkB activity (TrkB [1]): ++ (++: 20-35%)
